From ChEMBL document CHEMBL5212743, “Selectivity Literature for EUbOPEN Chemogenomics Library wave 3” (2023)
Residue numbers refer to the chain shown, from its start.

Key:
Conditions in all cases: at 100 nM
[1] = tested on: Receptor-type tyrosine-protein kinase FLT3 (Homo sapiens), P36888 [D835H]; assay: (§1) Selectivity interaction (KinomeScan (DiscoverX)) EUB0000138c FLT3
[2] = tested on: T1, Receptor-type tyrosine-protein kinase FLT3 (Homo sapiens), P36888 [D835V]; assay: as §1
T1 sequence (whole entry): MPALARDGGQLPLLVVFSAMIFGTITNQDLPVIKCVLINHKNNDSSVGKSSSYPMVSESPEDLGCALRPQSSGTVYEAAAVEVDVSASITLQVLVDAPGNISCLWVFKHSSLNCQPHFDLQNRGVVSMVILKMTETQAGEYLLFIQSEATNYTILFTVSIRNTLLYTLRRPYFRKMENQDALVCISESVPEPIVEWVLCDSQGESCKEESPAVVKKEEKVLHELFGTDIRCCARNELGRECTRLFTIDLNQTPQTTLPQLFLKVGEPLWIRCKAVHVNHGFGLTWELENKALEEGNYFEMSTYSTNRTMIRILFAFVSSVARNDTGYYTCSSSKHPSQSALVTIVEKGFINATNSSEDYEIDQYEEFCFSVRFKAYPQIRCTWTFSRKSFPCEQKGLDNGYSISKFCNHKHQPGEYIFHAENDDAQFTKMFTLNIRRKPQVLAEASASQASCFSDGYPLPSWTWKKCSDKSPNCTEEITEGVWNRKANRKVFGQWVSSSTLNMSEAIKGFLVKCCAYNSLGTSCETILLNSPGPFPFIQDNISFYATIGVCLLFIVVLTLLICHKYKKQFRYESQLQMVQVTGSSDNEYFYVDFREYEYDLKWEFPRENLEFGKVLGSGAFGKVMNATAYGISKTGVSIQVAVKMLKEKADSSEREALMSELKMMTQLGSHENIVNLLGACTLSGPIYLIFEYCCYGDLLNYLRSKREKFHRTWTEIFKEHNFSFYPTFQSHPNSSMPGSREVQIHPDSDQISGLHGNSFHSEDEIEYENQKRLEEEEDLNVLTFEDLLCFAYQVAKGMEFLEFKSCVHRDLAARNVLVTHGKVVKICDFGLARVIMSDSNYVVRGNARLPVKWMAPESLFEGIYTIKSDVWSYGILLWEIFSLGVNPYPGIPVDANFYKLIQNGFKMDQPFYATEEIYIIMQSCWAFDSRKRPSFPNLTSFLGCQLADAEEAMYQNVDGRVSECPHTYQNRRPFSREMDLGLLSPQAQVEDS

[3] = tested on: T2, Receptor-type tyrosine-protein kinase FLT3 (Homo sapiens), P36888 [D835Y]; assay: as §1
T2 sequence (whole entry): T1 sequence (whole entry) with V835Y

[4] = tested on: T3, Receptor-type tyrosine-protein kinase FLT3 (Homo sapiens), P36888 [N841I]; assay: as §1
T3 sequence (whole entry): T1 sequence (whole entry) with V835D, N841I

[5] = tested on: Receptor-type tyrosine-protein kinase FLT3 (Homo sapiens), P36888 [UNDEFINED MUTATION]; assay: as §1

`CNC(=O)c1ccc(Nc2ncc(C(F)(F)F)c(NCc3nccnc3N(C)S(C)(=O)=O)n2)cc1` [DEFACTINIB] was tested. Which % of control [1] did it give?
The % of control was 99.8%.

And the % of control [2]?
Its % of control is 0.2%.

What about the % of control [3] of the same compound?
The % of control was 5.9%.

What about the % of control [4] of the same compound?
Its % of control is 0%.

And the % of control [5]?
The % of control was 9%.
